Literature values as cited in PMC12308805, “Ultrahigh-Throughput Virtual Screening Strategies against PPI Targets: A Case Study of STAT Inhibitors” (Journal of Chemical Information and Modeling, 2025).
Square brackets hold non-standard residues; d marks the D form. Ends that are not written are not given here. Peptide text beside a SMILES is read from it. * marks the point of attachment. Phe(4-tetrazol-5-yl) = N[C@@H](Cc1ccc(-c2nnn[nH]2)cc1)C(=O)O; d(pY) = N[C@H](Cc1ccc(OP(=O)(O)O)cc1)C(=O)O; pY = N[C@@H](Cc1ccc(OP(=O)(O)O)cc1)C(=O)O; Isobutyryl = CC(C)C(=O)*

Test system: STAT3
Settings: cited from earlier work

Compound	Type (known STAT3 active)
CC(=O)N[C@H](Cc1ccc(OP(=O)(O)O)cc1)C(=O)N[C@H](CC(C)C)C(=O)N1CCC[C@H]1C(=O)N[C@@H](CCC(N)=O)C(=O)N[C@@H](C)C(=O)N[C@H](C(N)=O)C(C)C [CHEMBL156407] (Ac-[d(pY)][dL]PQAV-NH2)	Active

Same assay, conditions: sheet 6QHD_actives_decoys, retrospective screening set for STAT3 SH2 domain (PDB 6QHD); decoys are presumed inactives, not tested; ref DUD-E; cited from earlier work

Compound	Type
CC[C@H](C)[C@H](OC(=O)[C@@H](OC(=O)[C@H](O)[C@@H](C)CC)[C@@H](C)CC)C(=O)OC[C@H](O)[C@H](O)[C@H](O)[C@H](O)CO [Decoy863]	Inactive (Decoy)
CC(C)COC(=O)c1ccc(Nc2ncnc(NNC(=O)Cc3ccc([N+](=O)[O-])cc3)c2[N+](=O)[O-])cc1 [Decoy822]	Inactive (Decoy)
COc1c(O)ccc(/C=N/NC(=O)/C(=C\c2ccc(N(C)C)cc2)NC(=O)c2ccccc2)c1[N+](=O)[O-] [Decoy941]	Inactive (Decoy)
O=c1cc(-c2ccc(O)c(O)c2)oc2cc(O[C@@H]3O[C@H](CO[C@@H]4OC[C@@H](O)[C@@H](O)[C@H]4O)[C@@H](O)[C@H](O)[C@H]3O)cc(O)c12 [Decoy795]	Inactive (Decoy)
Cc1noc(C)c1CSc1ncccc1C(=O)O[C@H](C)C(=O)Nc1sccc1C(N)=O [Decoy904]	Inactive (Decoy)
COC(=O)Cc1c(C(=O)OC)sc(NC(=O)CSc2nc(C(C)(C)C)n[nH]2)c1C(=O)OC [Decoy810]	Inactive (Decoy)
COC(=O)c1[nH]c(C)c(C(=O)C2=C(O)C(=O)N(CCN3CCOCC3)[C@@H]2c2cc(OC)c(OC)c(OC)c2)c1C [Decoy872]	Inactive (Decoy)
CC(=O)c1cccc(S(=O)(=O)NCCC(=O)Nc2ccc(S(=O)(=O)/N=C3\CCCCCN3)cc2)c1 [Decoy783]	Inactive (Decoy)
OC[C@@H]1O[C@H](O[C@H]2O[C@H](CO)[C@H](O)[C@H](OCc3ccccc3)[C@@H]2OCc2ccccc2)[C@H](OCc2ccccc2)[C@H](OCc2ccccc2)[C@@H]1O [Decoy949]	Inactive (Decoy)
CCOc1ccc(NC(=O)CCC(=O)NNC(=S)NC(=O)c2cc([N+](=O)[O-])cc([N+](=O)[O-])c2)cc1 [Decoy733]	Inactive (Decoy)
CCc1ccc(NC(=O)CSC2=C(C#N)[C@H](c3ccco3)C(C(=O)Nc3ccc(S(N)(=O)=O)cc3)=C(C)N2)cc1 [Decoy855]	Inactive (Decoy)
CSCC[C@@H](NC(=O)[C@H](N)Cc1ccc(O)cc1)C(=O)N[C@H](Cc1ccccc1)C(=O)N[C@H](Cc1c[nH]cn1)C(=O)N[C@@H](CC(C)C)C(=O)N[C@H](CCSC)C(=O)N[C@@H](CC(=O)O)C(N)=O [Decoy814] (H-[dY][dM][dF][dH]L[dM]D-NH2)	Inactive (Decoy)
CCOC(=O)c1ccc(NC(=O)c2cc([N+](=O)[O-])ccc2NC(=O)CNCc2ccc3c(c2)OCO3)cc1 [Decoy729]	Inactive (Decoy)
WAGGDASGE [Decoy910]	Inactive (Decoy)
CCOC(=O)CCC(=O)O[C@H]1[C@@H](O[C@@H]2[C@H](C)[C@H](O[C@@H]3C[C@@](C)(OC)[C@H](O)[C@H](C)O3)[C@H](C)C(=O)O[C@@H](CC)[C@@](C)(O)[C@H](O)[C@H](C)C(=O)[C@H](C)C[C@@]2(C)O)O[C@@H](C)C[C@H]1N(C)C [Decoy820]	Inactive (Decoy)
CCOc1cc([C@@H]2C(C(=O)c3ccc4c(c3)OCCO4)=C(O)C(=O)N2CCCN2CCOCC2)ccc1O [Decoy848]	Inactive (Decoy)
C/C(=C(/CCO)SS/C(CCO)=C(\C)N(C=O)Cc1cnc(C)nc1N)N(C=O)Cc1cnc(C)nc1N [Decoy780]	Inactive (Decoy)
CCOC(=O)c1sc(NC(=O)CSc2n[nH]c(N/N=C/c3ccc(C)cc3)n2)c(C#N)c1C [Decoy916]	Inactive (Decoy)
CCc1c(C)nc(-n2nc(-c3ccco3)cc2NC(=O)c2cc(OC)c(OC)cc2[N+](=O)[O-])nc1O [Decoy834]	Inactive (Decoy)
O=C(CS[C@@H]1NN[C@H](NCc2ccco2)S1)N[C@H](Cc1c[nH]c2ccccc12)C(=O)O [Decoy825]	Inactive (Decoy)
CC[C@@H](C)[C@H](O)C(=O)O[C@H](C(=O)O[C@H](C(=O)OC[C@@H](O)[C@@H](O)[C@@H](O)[C@@H](O)CO)[C@@H](C)CC)[C@@H](C)CC [Decoy862]	Inactive (Decoy)
CCOC(=O)c1ccc(NC(=O)CSc2nnc(CNC(=O)c3ccco3)n2-c2ccc(OCC)cc2)cc1 [Decoy789]	Inactive (Decoy)
CC(C)(C)NS(=O)(=O)c1ccc(NC(=O)CSc2nnc(N/N=C/c3cccc(O)c3)n2N)cc1 [Decoy849]	Inactive (Decoy)

Same assay, conditions: sheet 6QHD_actives_decoys; known STAT3 actives of the retrospective screening set; ref ChEMBL / literature; cited from earlier work

Compound	Type (known STAT3 active)
CC(C)C[C@H](NC(=O)/C=C/c1ccc(OP(=O)(O)O)cc1)C(=O)N1CCC[C@H]1C(=O)N[C@@H](CCC(N)=O)COCc1ccccc1 [CHEMBL573904]	Active
CC(=O)N[C@@H](Cc1ccc(-c2nn[nH]n2)cc1)C(=O)N[C@@H](CC(C)C)C(=O)N1CCC[C@H]1C(=O)N[C@@H](CCC(N)=O)C(=O)N[C@H](C(=O)N[C@H](C(=O)O)C(C)C)[C@@H](C)O [CHEMBL439390] (Ac-[Phe(4-tetrazol-5-yl)]LPQTV-OH)	Active
CSCC[C@H](NC(=O)[C@H](CCC(N)=O)NC(=O)[C@H]1CCCN1C(=O)[C@H](CCCCN)NC(=O)[C@H](Cc1ccc(OP(=O)(O)O)cc1)NC(C)=O)C(=O)N[C@@H](Cc1c[nH]cn1)C(N)=O [CHEMBL160733] (Ac-[pY]K[dP]QMH-NH2)	Active

Same assay, conditions: sheet 6QHD_actives_decoys; retrospective screening set for STAT3 SH2 domain (PDB 6QHD); decoys generated with DUD-E and presumed inactive, not tested; ref DUD-E; cited from earlier work

Compound	Type
NCCCCCC(=O)OC[C@@H]1O[C@@H](Oc2ccc(-c3coc4cc(O)cc(O)c4c3=O)cc2)[C@@H](O)[C@H](O)[C@@H]1O [Decoy461]	Inactive (Decoy)
C[C@@H]1O[C@@H](O[C@H]2[C@H](O[C@@H]3CC[C@@H]4C(=CC[C@@H]5[C@@]4(C)C(=O)C[C@]4(C)[C@H]([C@@]6(C)O[C@@H](C(C)(C)O)CC6=O)[C@H](O)C[C@@]54C)C3(C)C)O[C@H](CO)[C@@H](O)[C@@H]2O)[C@H](O)[C@H](O)[C@H]1O [Decoy471]	Inactive (Decoy)
C[C@H](CCC(=O)NCC(=O)NCCS(=O)(=O)O)[C@H]1CC[C@H]2[C@@H]3[C@H](O)C[C@@H]4C[C@H](O)CC[C@]4(C)[C@H]3C[C@H](O)[C@]12C [Decoy532]	Inactive (Decoy)
CC(=O)N[C@H]1[C@H]([C@H](O)[C@H](O)CO)O[C@](O[C@H]2[C@@H](O)[C@@H](CO)O[C@@H](O[C@H]3[C@H](O)[C@@H](O)[C@H](NC(C)=O)O[C@@H]3CO)[C@@H]2O)(C(=O)O)C[C@@H]1O [Decoy607]	Inactive (Decoy)
CNC(=O)[C@H](CC(C)C)NC(=O)[C@H](Cc1c[nH]cn1)NC(=O)[C@@H](C)NC(=O)[C@@H](NC(=O)[C@H](C)NC(=O)[C@H](Cc1c[nH]c2ccccc12)NC(=O)[C@H](Cc1cnc[nH]1)NC(=O)C(C)C)C(C)C [Decoy626] (Isobutyryl-HWAV[dA]HL-NHMe)	Inactive (Decoy)
COc1ccc(S(=O)(=O)NNC(=O)CCCCC(=O)NNS(=O)(=O)c2ccc(OC)cc2)cc1 [Decoy571]	Inactive (Decoy)
C=C[C@](C)(O)CC/C=C(\C)C(=O)OC[C@H]1O[C@@H](O[C@@](C)(C=C)CC/C=C(\C)C(=O)O)[C@H](O)[C@@H](OC(=O)/C(C)=C/CC[C@](C)(O)C=C)[C@@H]1O [Decoy662]	Inactive (Decoy)
COc1cc([C@@H]2OC[C@@]3(O)[C@@H](c4ccc(O[C@@H]5O[C@H](CO)[C@@H](O)[C@H](O)[C@H]5O)c(OC)c4)OC[C@@]23O)ccc1O [Decoy396]	Inactive (Decoy)
[H]/N=C(N/C(N)=N\c1nc(C)c2cc(OC)ccc2n1)\C(C(=O)c1ccccc1)=C(/O)OCC [Decoy667]	Inactive (Decoy)
COC(=O)CCSCCO[C@@H]1O[C@H](CO)[C@@H](O[C@@H]2O[C@H](CO)[C@@H](O)[C@@H](O)[C@H]2O)[C@H](O)[C@H]1NC(C)=O [Decoy354]	Inactive (Decoy)
O=S(=O)(O)c1cc(S(=O)(=O)O)c2c(/N=N/c3ccc([C@H](c4ccc(/N=N/c5ccc(O)cc5)cc4)C4CCCCC4)cc3)c(O)ccc2c1 [Decoy555]	Inactive (Decoy)
COC(=O)CCSCCO[C@@H]1O[C@H](CO)[C@@H](O[C@@H]2O[C@H](CO)[C@@H](O)[C@@H](O)[C@H]2O)[C@@H](O)[C@H]1NC(C)=O [Decoy352]	Inactive (Decoy)
CC(C)CNC(=O)c1ccc2c(=O)n(C(C)C)c3nn(CC(=O)Nc4ccc(F)cc4)c(=O)n3c2c1 [Decoy378]	Inactive (Decoy)
COc1cc(-c2nnc(SCC(=O)N/N=C/c3cccc(O)c3)n2-c2ccccc2)cc(OC)c1OC [Decoy474]	Inactive (Decoy)
[H]/N=C1/[C@@H](C)[C@@H](O)[C@@](C)(O)[C@@H](CC)OC(=O)[C@H](C)[C@H](O[C@@H]2C[C@@](C)(OC)[C@H](O)[C@H](C)O2)[C@@H](C)[C@H](O[C@H]2O[C@@H](C)C[C@@H](N(C)C)[C@H]2O)[C@@](C)(O)C[C@@H]1C [Decoy389]	Inactive (Decoy)
CNc1ncnc2c1ncn2[C@H]1C[C@H](O)[C@@H](COC(c2ccccc2)(c2ccc(OC)cc2)c2ccc(OC)cc2)O1 [Decoy334]	Inactive (Decoy)
CC(=O)N[C@H]1[C@H]([C@H](O)[C@H](O)CO)O[C@@](O[C@H]2[C@@H](O)[C@@H](CO)O[C@@H](O[C@@H]([C@H](O)[C@@H](O)C=O)[C@H](O)CO)[C@@H]2O)(C(=O)O)C[C@@H]1O [Decoy664]	Inactive (Decoy)
CCOC(=O)c1c(C)oc(NC(=O)[C@@H](CC)n2c(N)nnc2SCC(=O)OC)c1C(=O)OCC [Decoy617]	Inactive (Decoy)
O=C(CSc1n[nH]c(N/N=C/c2cc(Cl)ccc2O)n1)NNC(=O)c1ccc(Cl)cc1 [Decoy591]	Inactive (Decoy)
COC(=O)c1ccc(NC(=O)CSc2nn3c(SCC(=O)Nc4ccc(C(=O)OC)cc4)nnc3s2)cc1 [Decoy625]	Inactive (Decoy)
CCN(CC)S(=O)(=O)c1ccc(NC(=O)CSc2nnc(N/N=C/c3cccc(O)c3)n2N)cc1 [Decoy398]	Inactive (Decoy)
CCCNC(=O)CN(C)C(=O)c1ccc(N2CCNCC2)c(NS(=O)(=O)c2ccc(CCC)cc2)c1 [Decoy450]	Inactive (Decoy)
COc1cc2cc(Oc3ccc(CCC(=O)O)c(O[C@@H]4O[C@H](CO)[C@@H](O)[C@H](O)[C@H]4O)c3)c(=O)oc2cc1O [Decoy393]	Inactive (Decoy)
